Laboratory results reported in paper PMC3871589, “Evaluation of STAT3 Signaling in ALDH+ and ALDH+/CD44+/CD24− Subpopulations of Breast Cancer Cells” (PLoS ONE, 2013).

Experiments:
[1] = system: ALDH+ subpopulation in MDA-MB-231, SUM159, and SK-BR3 cancer cells; assay: ALDEFLUOR assay, percentage of ALDH+ subpopulation; assay type: cell-based, human; conditions: un-separated MDA-MB-231, SUM159, SK-BR3; LLL12 5 µmol/L or Stattic 10 µM, 24 hours
Protocol: (§1) The ALDEFLUOR kit (StemCell Technologies) was used to isolate the population with high ALDH enzymatic activity as previously described. Briefly, cells were trypsinized to single cells using 0.05% trypsin and subsequently suspended in ALDEFLUOR assay buffer containing ALDH substrate (BAAA, 1 µmol/l per 1×10^6 cells) and then incubated for 40 minutes at 37°C. For each sample, an aliquot of cells was stained under identical conditions with 15 mmol/L diethylaminobenzaldehyde (DEAB), a specific ALDH inhibitor, as an ALDH^− control. Anti-human PE-CD24 and PE-Cy5-CD44 antibody (BioLegend) were used for CD44/CD24 identification and to separate ALDH^+/CD44^+/CD24^− and ALDH^−/CD44^+/CD24^+ cells when combined with ALDH staining. Analysis was performed using a FACStarPLUS (Becton Dickinion) flow cytometer. To assess the effect of STAT3 inhibitors on the subpopulation of ALDH^+ cells, un-separated breast cancer cells were treated with 5 µmol/L of LLL12 or 10 µmol/L Stattic for 24 hours prior to performing the ALDEFLUOR assay.

[2] = system: mTOR and AKT phosphorylation; assay: mTOR and AKT phosphorylation in ALDH+ cells; assay type: cell-based, human; conditions: ALDH+ subpopulation, all three cell lines; 5 µmol/L, 24 hours
Protocol: (§2) After sorting by flow cytometry, ALDH^+ and ALDH^+/CD44^+/CD24^− stem-like cells were cultured in serum-free stem cell medium in ultra-low attachment six-well plates (Corning) to maintain cancer stem cell characteristics. ALDH^−, ALDH^−/CD44^+/CD24^+cells and un-separated cells were cultured in regular medium and replaced with identical stem cell medium for three days before being harvested. To assess the effects of STAT3 inhibitors, ALDH^+ and ALDH^+/CD44^+/CD24^− subpopulations of breast cancer cells were treated with LLL12 (5 µmol/L) of or static (10 µmol/L) for 24 hours. STAT3, or control GFP shRNA lentivirus (CTL ShRNA) was introduced into ALDH^+ breast cancer stem-like cells for 48 hours, then followed by selection with puromycin (0.2 µg/ml) for 72 hours. Antibodies (Cell Signaling Tech.) against phospho-specific STAT3 (Tyrosine 705) (P-STAT3, Y705), ERK1/2 (Threonine 202/Tyrosine 204), cleaved Poly (ADP-ribose) polymerase (PARP), ALDH1, cleaved caspase-3, and GAPDH were used for western blots.

ALDH1 = ALDH1 protein expression in ALDH+ cells; assay type: cell-based, human
Protocol: as §2

Yes = Yes (Homo sapiens, UniProt P07947); assay: Kinase profiler assay, Yes; assay type: biochemical; conditions: 10 concentrations, 100 µM highest; Table S3
Protocol: (§3) The effects of LLL12 on twenty six purified human protein kinases were performed at the Millipore UK Limited (Dundee, UK) and Reaction Biology Corp. (Malvern, PA) using the Kinase profiler assay. Assays contained a peptide substrate, purified recombinant human protein kinases to be tested, and gamma-labeled ATP, magnesiumion. Radioactive phosphorylated product was measured and quantitated via a scintillation counter.

[3] = system: ALDH+/CD44+/CD24− subpopulation of MDA-MB-231 and SUM159 breast cancer cells; assay: Tumorsphere formation of ALDH+/CD44+/CD24− subpopulation; assay type: cell-based, human; conditions: Figure 5E
Protocol: (§4) ALDH^+ and ALDH^+/CD44^+/CD24^− cells were plated as single cells in ultra-low attachment six-well plates at a density of 250, 500, 1000 or 50,000 viable cells/well as previously described. On the second day after seeding, the ALDH^+ cancer cells were treated with 2.5–10 µmol/L of LLL12 or Stattic. For tumorsphere forming capacity assay, ALDH^+ or ALDH^− cells were plated as single cells in ultra-low attachment six-well plates at a density of 250, 500 or 1000 viable cells/well. Tumorsphere growth was observed under a microscope 10 to 15 days later.

PI3K = assay: Kinase profiler assay, PI3K; assay type: biochemical, human; conditions: bound stated jointly for the other protein kinases; Table S3
Protocol: as §3

[4] = system: ALDH+/CD44+/CD24− subpopulation of MDA-MB-231 and SUM159 breast cancer cells; assay: Cell viability of ALDH+/CD44+/CD24− subpopulation; assay type: cell-based, human; conditions: Figure 5D
Protocol: The breast cancer cells were seeded in 96-well plates (3,000 cells/well) in triplicates in a serum-free mammary epithelial basal medium. The following day, cancer cells were treated with 1 to 10 µmol/L of LLL12 or Stattic for 72 hours, STAT3 ShRNA or control GFP shRNA lentivirus (CTL ShRNA) for 48 hours. MTT (Thiazolyl Blue Tetrazolium Bromide, Sigma-Aldrich) assay was used to determine the cell viability.

[5] = system: STAT3 phosphorylation (Y705); assay: Western blot of STAT3 phosphorylation in ALDH+ cells; assay type: cell-based, human; conditions: LLL12 5 µmol/L or Stattic 10 µmol/L 24 hours, ShRNA 48 hours then puromycin
Protocol: as §1
(§5) After sorting by flow cytometry, ALDH^+ and ALDH^+/CD44^+/CD24^− stem-like cells were cultured in serum-free stem cell medium in ultra-low attachment six-well plates (Corning) to maintain cancer stem cell characteristics. […]

[6] = system: SUM159 ALDH+ breast cancer stem-like cells; assay: Mouse mammary fat pad model with SUM159 ALDH+ cells; assay type: in vivo, NOD/SCID mice; conditions: 5 mg/kg IP daily
Protocol: For mammary fat pad experiments, 1×10^5 of sorted SUM159 ALDH^+ cells, assessed using Aldefluor kit (StemCell Technologies) were injected into the humanized fat pads of NOD/SCID mice (The Jackson Laboratory), as previously described [5]. […] Tumors were measured by a caliper and the volume was calculated using V = π (width^2×length)/6. After 15 days of treatments with LLL12 or vehicle control, tumors were harvested from euthanized mice, snap-frozen in liquid nitrogen, and stored in −80°C. […] The rest of tumors tissues were homogenized to examine the expression of STAT3 phosphorylation by western blot.

PYK2 = PYK2 (Homo sapiens, UniProt Q14289); assay: Kinase profiler assay, PYK2; assay type: biochemical; conditions: 10 concentrations, 100 µM highest; Table S3
Protocol: as §3

EGFR = EGFR (Homo sapiens, UniProt P00533); assay: Kinase profiler assay, EGFR; assay type: biochemical; conditions: bound stated jointly for the other protein kinases; Table S3
Protocol: as §3

Met = Met (Homo sapiens, UniProt P08581); assay: Kinase profiler assay, Met; assay type: biochemical; conditions: bound stated jointly for the other protein kinases; Table S3
Protocol: as §3

STAT3 target genes = assay: RT-PCR of STAT3 downstream target genes in ALDH+ cells; assay type: cell-based, human; conditions: 5 µM, 24 h
Protocol: The ALDH^+ and ALDH^+/CD44^+/CD24^− subpopulations of breast cancer cells were treated with LLL12 (5 µM) or DMSO for 24 h. RNA from the cells was then collected using RNeasy Kits (Qiagen). cDNA was constructed from a 500 ng sample of RNA using Omniscript RT (Qiagen). Primer sequences and source information can be found in Table S1. The intensity of bands was quantified and normalized to GAPDH.

Syk = Syk (Homo sapiens, UniProt P43405); assay: Kinase profiler assay, Syk; assay type: biochemical; conditions: 10 concentrations, 100 µM highest; Table S3
Protocol: as §3

[7] = system: ALDH+ subpopulations of SK-BR-3, MDA-MB-231, and SUM159; assay: Tumorsphere formation, ALDH+ subpopulations; assay type: cell-based, human; conditions: 2.5–10 µmol/L, 10 to 15 days
Protocol: as §4

[8] = system: ALDH+/CD44+/CD24− subpopulation of MDA-MB-231 and SUM159; assay: Caspase-3 cleavage in ALDH+/CD44+/CD24− cells; assay type: cell-based, human; conditions: 0.5–5 µM
Protocol: as §1, §5

Sequence of Yes (P07947 whole entry): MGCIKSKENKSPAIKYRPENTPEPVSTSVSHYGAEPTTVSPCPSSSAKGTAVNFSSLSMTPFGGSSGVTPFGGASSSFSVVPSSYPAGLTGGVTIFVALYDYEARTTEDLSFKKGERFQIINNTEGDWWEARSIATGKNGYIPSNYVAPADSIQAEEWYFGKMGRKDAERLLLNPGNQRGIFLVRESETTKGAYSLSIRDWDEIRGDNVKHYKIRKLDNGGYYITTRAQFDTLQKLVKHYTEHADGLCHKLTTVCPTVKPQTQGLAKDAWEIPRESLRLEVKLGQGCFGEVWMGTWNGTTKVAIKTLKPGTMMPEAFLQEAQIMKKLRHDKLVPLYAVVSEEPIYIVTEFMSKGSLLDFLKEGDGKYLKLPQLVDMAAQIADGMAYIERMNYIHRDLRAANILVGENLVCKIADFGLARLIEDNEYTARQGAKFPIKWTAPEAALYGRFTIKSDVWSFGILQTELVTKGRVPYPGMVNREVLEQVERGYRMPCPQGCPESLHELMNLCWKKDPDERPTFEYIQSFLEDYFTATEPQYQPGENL
Sequence of EGFR (P00533 25-1210): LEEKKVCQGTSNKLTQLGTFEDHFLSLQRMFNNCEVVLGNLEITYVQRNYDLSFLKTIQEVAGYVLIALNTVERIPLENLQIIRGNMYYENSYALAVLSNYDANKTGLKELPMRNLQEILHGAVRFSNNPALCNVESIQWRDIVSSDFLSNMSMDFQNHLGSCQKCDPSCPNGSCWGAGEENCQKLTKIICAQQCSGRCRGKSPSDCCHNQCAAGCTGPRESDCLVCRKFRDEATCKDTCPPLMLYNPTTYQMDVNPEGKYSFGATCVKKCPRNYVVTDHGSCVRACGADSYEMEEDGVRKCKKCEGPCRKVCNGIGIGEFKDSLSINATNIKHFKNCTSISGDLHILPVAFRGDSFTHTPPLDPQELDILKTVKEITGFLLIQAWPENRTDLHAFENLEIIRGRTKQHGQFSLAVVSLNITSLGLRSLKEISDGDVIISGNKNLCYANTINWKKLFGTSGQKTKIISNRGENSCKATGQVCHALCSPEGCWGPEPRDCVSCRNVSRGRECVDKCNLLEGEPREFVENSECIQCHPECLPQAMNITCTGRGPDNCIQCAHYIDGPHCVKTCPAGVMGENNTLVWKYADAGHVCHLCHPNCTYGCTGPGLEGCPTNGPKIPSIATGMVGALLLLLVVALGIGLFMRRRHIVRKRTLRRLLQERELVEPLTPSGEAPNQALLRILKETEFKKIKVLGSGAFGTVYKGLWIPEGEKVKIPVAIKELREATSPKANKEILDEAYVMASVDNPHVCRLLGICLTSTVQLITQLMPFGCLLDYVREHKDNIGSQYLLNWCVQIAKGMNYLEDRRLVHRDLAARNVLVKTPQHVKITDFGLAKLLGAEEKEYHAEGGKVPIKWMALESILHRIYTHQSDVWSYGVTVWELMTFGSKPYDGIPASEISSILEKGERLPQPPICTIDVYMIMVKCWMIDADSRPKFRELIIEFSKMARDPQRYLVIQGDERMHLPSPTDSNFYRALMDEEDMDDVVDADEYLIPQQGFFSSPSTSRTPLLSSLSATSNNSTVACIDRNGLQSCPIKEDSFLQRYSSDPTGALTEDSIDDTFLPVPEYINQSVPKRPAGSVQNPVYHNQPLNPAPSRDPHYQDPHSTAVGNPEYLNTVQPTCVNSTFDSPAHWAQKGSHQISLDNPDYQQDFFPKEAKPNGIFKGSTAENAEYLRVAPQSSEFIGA
Sequence of PYK2 (Q14289 whole entry): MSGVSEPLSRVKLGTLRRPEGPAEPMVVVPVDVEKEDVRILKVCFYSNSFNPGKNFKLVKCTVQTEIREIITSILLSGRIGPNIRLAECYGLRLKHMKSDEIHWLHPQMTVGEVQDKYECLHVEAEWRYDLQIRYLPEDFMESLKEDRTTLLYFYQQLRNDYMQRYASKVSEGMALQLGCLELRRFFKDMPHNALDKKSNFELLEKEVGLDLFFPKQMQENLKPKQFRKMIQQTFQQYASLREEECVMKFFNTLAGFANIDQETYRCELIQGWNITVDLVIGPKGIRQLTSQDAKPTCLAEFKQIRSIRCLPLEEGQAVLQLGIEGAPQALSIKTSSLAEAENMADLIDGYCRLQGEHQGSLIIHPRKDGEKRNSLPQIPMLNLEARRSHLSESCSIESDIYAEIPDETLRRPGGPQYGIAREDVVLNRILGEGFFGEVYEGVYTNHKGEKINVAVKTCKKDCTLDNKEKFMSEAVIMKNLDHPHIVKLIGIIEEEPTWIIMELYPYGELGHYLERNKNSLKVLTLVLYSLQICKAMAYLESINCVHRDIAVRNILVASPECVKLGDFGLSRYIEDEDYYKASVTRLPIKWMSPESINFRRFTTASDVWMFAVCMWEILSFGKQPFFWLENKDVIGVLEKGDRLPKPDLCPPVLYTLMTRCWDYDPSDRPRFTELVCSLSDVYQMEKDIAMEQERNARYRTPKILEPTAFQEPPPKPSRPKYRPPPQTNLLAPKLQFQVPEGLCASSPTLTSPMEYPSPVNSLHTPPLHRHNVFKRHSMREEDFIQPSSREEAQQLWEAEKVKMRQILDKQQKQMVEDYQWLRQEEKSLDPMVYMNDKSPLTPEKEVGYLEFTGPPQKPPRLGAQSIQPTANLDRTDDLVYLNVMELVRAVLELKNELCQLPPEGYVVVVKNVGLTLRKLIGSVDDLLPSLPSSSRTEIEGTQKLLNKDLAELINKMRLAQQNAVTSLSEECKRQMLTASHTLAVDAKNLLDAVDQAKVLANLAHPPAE
Sequence of Met (P08581 25-1390): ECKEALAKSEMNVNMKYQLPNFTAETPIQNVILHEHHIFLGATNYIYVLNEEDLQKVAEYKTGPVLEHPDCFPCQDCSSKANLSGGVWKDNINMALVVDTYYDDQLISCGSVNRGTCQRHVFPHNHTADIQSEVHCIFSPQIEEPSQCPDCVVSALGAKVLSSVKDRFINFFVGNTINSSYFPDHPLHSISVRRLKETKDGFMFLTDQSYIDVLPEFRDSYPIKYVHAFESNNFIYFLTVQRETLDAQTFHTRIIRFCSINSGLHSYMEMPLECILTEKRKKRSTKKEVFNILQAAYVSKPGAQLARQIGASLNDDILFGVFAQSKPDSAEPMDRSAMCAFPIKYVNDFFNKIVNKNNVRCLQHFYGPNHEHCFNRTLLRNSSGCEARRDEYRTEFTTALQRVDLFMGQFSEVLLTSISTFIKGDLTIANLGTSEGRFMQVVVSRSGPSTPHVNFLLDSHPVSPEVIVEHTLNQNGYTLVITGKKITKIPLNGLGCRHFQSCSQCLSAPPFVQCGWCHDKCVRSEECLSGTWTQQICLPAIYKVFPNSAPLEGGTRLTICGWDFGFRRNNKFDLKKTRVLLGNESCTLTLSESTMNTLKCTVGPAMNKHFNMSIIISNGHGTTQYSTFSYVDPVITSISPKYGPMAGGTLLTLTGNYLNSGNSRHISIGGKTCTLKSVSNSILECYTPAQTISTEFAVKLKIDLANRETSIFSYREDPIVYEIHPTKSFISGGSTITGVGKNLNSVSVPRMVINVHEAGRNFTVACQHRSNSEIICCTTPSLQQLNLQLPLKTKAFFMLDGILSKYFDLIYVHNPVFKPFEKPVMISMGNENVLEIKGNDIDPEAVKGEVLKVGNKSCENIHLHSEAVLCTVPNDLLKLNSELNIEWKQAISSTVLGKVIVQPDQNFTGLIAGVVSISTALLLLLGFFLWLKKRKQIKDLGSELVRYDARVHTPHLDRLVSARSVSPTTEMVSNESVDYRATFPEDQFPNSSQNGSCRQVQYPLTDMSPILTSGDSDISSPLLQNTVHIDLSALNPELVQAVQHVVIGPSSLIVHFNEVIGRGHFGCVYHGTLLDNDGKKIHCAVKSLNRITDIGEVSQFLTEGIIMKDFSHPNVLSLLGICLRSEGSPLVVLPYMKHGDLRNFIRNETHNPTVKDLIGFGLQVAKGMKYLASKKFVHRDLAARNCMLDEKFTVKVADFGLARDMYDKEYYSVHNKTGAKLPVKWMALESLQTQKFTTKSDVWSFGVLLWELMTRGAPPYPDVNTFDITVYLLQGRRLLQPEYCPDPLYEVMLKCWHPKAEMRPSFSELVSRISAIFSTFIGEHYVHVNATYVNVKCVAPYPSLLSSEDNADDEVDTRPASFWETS

NS(=O)(=O)c1cccc2c1C(=O)c1cccc(O)c1C2=O [LLL12]
ALDH+ subpopulation (percentage) [1]: decrease | mTOR and AKT phosphorylation [2]: almost no effect | expression of ALDH1 protein (ALDH1): down-regulated | IC50 (Yes): > 100 µM | tumorsphere forming capacity [3]: inhibited | IC50 (PI3K): ≥ 77.9 µM | cell viability [4]: inhibited | STAT3 phosphorylation in ALDH+ cells [5]: inhibited | STAT3 phosphorylation in tumor [6]: significant suppresses | tumor mass ([6]; 15 days, P<0.05): significant suppresses | tumor volume ([6]; 15 days, P<0.05): significant suppresses | IC50 (PYK2): > 100 µM | IC50 (EGFR): ≥ 77.9 µM | IC50 (Met): ≥ 77.9 µM | expression of STAT3 target genes Cyclin D1, survivin, Bcl-2, Bcl-XL, MMP-2, and MMP-9 (STAT3 target genes; ALDH+ breast cancer cells): down-regulated | Twist1, Notch-1, and Notch-3 expression (STAT3 target genes; ALDH+ breast cancer stem-like cells): inhibited | IC50 (Syk): > 100 µM | tumorsphere formation [7]: suppress | caspase-3 cleavage [8]: induced caspase-3 cleavage
